Drawing on a melting point compilation (Tetko et al.; mined from patent text by program, amines drawn as free bases though some values may be those of a salt), this text covers melting point for 90 molecules.

Molecules are shown by their SMILES.

For orientation: melting point means the temperature, or range, at which the solid turns liquid. The molecule `Cc1nc(N)c2nc(C)n(CCCN)c2c1C` showed a melting point of 192 °C.

Turning to `CN1C(=O)CCC2(C)c3ccc(Sc4ccc(Cl)cc4)cc3CCC12` (single isomer, unassigned; (+)), the melting point lay in the range of 122 to 124 °C. In the case of `CN(C)C=C(C#N)CNC=O`, the melting point is 90 °C. The value for `O=c1c2cc(O)ccc2oc2cccc(NCCN3CCCC3)c12` was 192 to 194 °C. Molecule `CCC1(CC)OC(=O)Nc2ccc(-c3cccc(Cl)c3)cc21` showed a melting point of 150 to 151 °C. Consider `Cc1cccc(C(=O)CC2CCCN(C)C2)c1` (stereo not given), for which the melting point lay within 92 to 94 °C. `O=C(O)Cn1c(Cc2ccccc2)ccc(NS(=O)(=O)CCc2ccccc2)c1=O` yielded a melting point of 165 to 167 °C.

The molecule `Cc1cc(C)c2c(c1)OCC2c1ccc(C(C)C)cc1` (stereo not given) gave a melting point of 46 to 47 °C. The molecule `O=C(O)CCCCO/N=C(/c1cccnc1)c1cccc(C(F)(F)F)c1` yielded a melting point of 70.3 °C. `Cc1oc(-c2ccccc2)nc1CCOc1ccc(CCC(N)=O)cc1`: the melting point lay within 139 to 140 °C.

The molecule `CC(=O)COc1ccc2ccc(=O)oc2c1` returned a melting point of 168 to 170 °C. The value for `COC(=O)C(=CC1C(C(=O)O)C1(C)C)OC` (stereo not given) was 78 °C.

As to `CC1SC(=O)NN=C1c1ccc2c(c1)C(C)(C)C(=O)N2C(=O)Oc1ccccc1` (stereo not given), the melting point came out at 248 °C. The value for `CCCCCCCCCCCCCC=C(C(=O)O)c1ccc2c(c1)C(C)(C)CCC2(C)C` was 59 to 60 °C; that for `CC(CNC1CC(C)(C)NC(C)(C)C1)C(=O)NC1CC(C)(C)NC(C)(C)C1` (stereo not given) was 116 °C. As for `Cc1ccc(N2C(=O)C(O)=C(C(=O)c3cccc(Cl)c3)C2c2ccc(C(C)C)cc2)nn1` (stereo not given), the melting point stood at 271 °C.

With `CO[C@@H]1C=C(S(=O)(=O)c2ccccc2)[C@@H](C(C)C)CC1`, the melting point turned out to be 113 °C. The value for `CC(O)(COc1ccc(S(=O)(=O)c2ccccc2)cc1)C(F)(F)F` (stereo not given) was 94 to 96 °C; that for `CC(=O)n1cc(/C=C2\N=C(c3ccccc3)OC2=O)c2cc(Cl)cnc21` was 242 °C; that for `CSC1=Nc2ccc(Cl)cc2Nc2cscc21` was 152 to 154 °C. In turn, `CN(C)c1nc(=O)[nH]n1C` returned a melting point of 222 °C. The value for `COC(=O)c1nc(Cl)nc(N)c1Cl` was 164 to 166 °C; that for `O=C(CNC1=Nc2ccc(Cl)cc2C(c2ccccc2Cl)=NC1)CN1C(=O)c2ccccc2C1=O` was 180 to 190 °C; that for `O=C(OCC1CCN(CC2CSc3ccc(F)cc3C2)CC1)c1ccc(F)cc1` (stereo not given) was 113 to 114 °C. `CCOP(=O)(/C=C/c1cn(-c2ccccc2)nc1OCc1ccc(OCc2nc(-c3ccc(OC)c(C(=O)O)c3)oc2C)c(OC)c1)OCC` gave a melting point of 171 to 172 °C. The value for `COC(=O)CCCCCOc1ccc(NC(=O)OCCO)cc1` was 69.5 to 71.5 °C; that for `COC(=O)c1ccc(CNC(=O)c2c(N)cc(Cl)cc2Cl)cc1` was 132 to 137 °C. The value for `c1ccc(CN2CCN(c3n[nH]c4c3Cc3ccccc3-4)CC2)cc1` was 256 to 258 °C; that for `Cc1ccc(N2C(=O)C(O)=C(C(=NOCC(=O)O)c3ccc(C(C)C)cc3)C2c2ccc(OC(F)(F)F)cc2)nn1` (stereo not given) was 227 °C; that for `CS(=O)(=O)c1ccc(Cl)cc1C(=O)O` was 138 to 146 °C. In turn, `COc1cc(OC)nc(Oc2ccc3ccccc3c2C=NNc2ccccc2)n1` registered a melting point of 148 °C. The value for `Clc1ccc(C#CCBr)cc1` was 41 to 43 °C; that for `CNc1c(CCO)cc(N)c([N+](=O)[O-])c1CCO` was 99 °C. The value for `COCc1cccc(C=CC(O)c2ccccc2)c1NC(=O)CC1c2ccccc2Oc2ccccc21` (stereo not given) was 204 to 206 °C; that for `Cc1sc(-c2ccc([N+](=O)[O-])cc2)nc1O` was 244 to 248 °C. The value for `O=c1n(-c2ccc(Cl)cc2Cl)nc2n1CCCC2` was 100 to 104 °C; that for `COc1cc2c(cc1O)CCN(Cc1cccc(NS(C)(=O)=O)c1)C2` was 99 to 101 °C.

Molecule `COC(=O)c1ccc(C=C(Br)Br)c(N)c1` had a melting point of 97 to 99 °C. The value for `CN(CC[C@H]1CC[C@H](C(=O)O)CC1)c1nccc(C(F)(F)F)n1` was 110 to 112 °C; that for `Nc1nc2c(ncn2[C@@H]2CO[C@H](CO)[C@@H](O)C2)c(=O)[nH]1` was > 300 °C; that for `N#Cc1c(-c2ccc(C(F)(F)F)cc2)n(O)c2ccccc12` was 202 to 203 °C.

`CC(=O)Nc1cc(C)c(C)nc1C` had a melting point of 89 to 92 °C. The value for `CCOC(=O)c1c(N(C)C)cc(C(F)(F)F)nc1C(F)(F)F` was 63.5 to 65 °C; that for `CC(=O)NCC1CN(c2ccc(-c3cccc(CCl)c3)c(F)c2)C(=O)O1` (stereo not given) was 128 to 130 °C. The value for `O=C(O)CCCCCCCn1nc(-c2ccccc2)c(-c2ccccc2)n1` was 86 to 88 °C; that for `CNCc1nnc(-c2ccc3occ(-c4cccc(OC(F)(F)F)c4)c3c2)o1` was 65 to 66 °C. The value for `O=C(O)c1ccc(C(=O)/C=C/c2ccc(-c3nccs3)cc2)cc1` was 232 to 235 °C; that for `C=C1c2ccccc2CC(=O)Cc2ccccc21` was 68 to 70 °C. `Cc1cccc(-c2[nH]c(C(C)C)nc2-c2cccc(-c3ccc4c(c3)C=CS4(=O)=O)c2)n1` came in with a melting point of 137 to 138 °C. The value for `Cn1nc(-c2ccc(S(C)(=O)=O)cc2)c2ccccc2c1=O` was 218 to 220 °C; that for `CN(Cc1cc2c3c(c1)c(=O)c(C(=O)NCc1ccc(Cl)cc1)cn3CC(=O)N2C)C[C@@H](O)c1ccco1` was 119 to 120 °C; that for `Cn1c(C2CC2)nc2cc(C(=O)NC3CC3)c(NC(=O)c3cc(C(F)(F)F)nn3-c3ncccc3Cl)c(Cl)c21` was 233 to 235 °C. As for `Cc1nn(-c2ccccn2)c2nc3ccc(C(F)(F)F)cc3c(Cl)c12`, the melting point was found to be 206 °C. The value for `Cc1ccc(S(=O)(=O)NCC(NS(=O)(=O)c2ccc(C)cc2)c2ccccc2)cc1` (stereo not given) was 148 to 149 °C; that for `CC(C)(C)Cn1c(=O)c(=O)[nH]c2cc(Cl)c([N+](=O)[O-])cc21` was 270 to 271 °C; that for `CCc1[nH]c(=S)[nH]c1C(=O)c1ccncc1` was 275 °C. With `Cc1ccc2c(c1)C1(CNC(=O)C1)CC2=O` (stereo not given), the melting point lay within 188 to 192 °C. The value for `O=C1CC(CO)N1c1ccccc1` (stereo not given) was 100 to 102 °C; that for `CCc1[nH]nc2c1C(=O)c1c(NC(=O)NN3CCN(C)CC3)cccc1-2` was 244 to 246 °C; that for `CSC(=NC(C)=O)Nc1c(Cl)cccc1Cl` was 137 to 140 °C.

With `CNc1nc(-c2cccc(NC(=O)c3ccccc3)c2)c2cc(OC)c(OC)cc2n1`, the melting point is 146 to 148 °C. The value for `N#Cc1ccc2[nH]c3c(ccc4cc[nH]c43)c2c1` was > 250 °C; that for `O=C(CS(=O)(=O)c1ccc(Cl)cc1C(=O)O)c1ccccc1` was 170 to 171 °C; that for `CN(C)C1(c2cccc(F)c2)CCC(=CC(=O)NCCc2c[nH]c3ccccc23)CC1` (stereo not given) was 172 to 176 °C.

In turn, `N#CC(CCN1CCC(c2ccccc2)CC1)(c1ccccc1)c1ccccc1` yielded a melting point of 88 to 89.5 °C. `CC(=O)OCc1nc(C(CN(C(C)=O)C(C)(C)C)OC(C)=O)ccc1OC(C)=O` (stereo not given) came in with a melting point of 60 to 64 °C. In turn, `CCC1CC(=O)CC23CCN(C#N)C(Cc4ccc(OC)cc42)C13` (stereo not given) returned a melting point of 141 to 145 °C. Turning to `CC(=NS(=O)(=O)C=Cc1c(Cl)cccc1Cl)NC1CC1`, the melting point fell in the range of 121 to 124 °C. Molecule `CC(C)OC(=O)c1ccc(OCC(=NO)c2ccc3c(c2)C(C)(C)CCC3(C)C)cc1O` gave a melting point of 130 °C. The value for `CCCCNC(N)=Nc1nc(-c2cccc(CNC(C)=O)n2)cs1` was 145 to 146 °C. The value for `COC(=O)C(Oc1cc(O)ccc1C#N)c1ccccc1C` (racemic) was 114 to 121 °C. The value for `CC(C)(C)NC(=O)OC1SCN(c2ccccc2)C1=O` (stereo not given) was 146 to 148 °C; that for `O=C(O)Cc1c(-c2ccccc2)nn(-c2cccc(C(F)(F)F)c2)c1-c1ccccc1` was 166 to 167 °C. Regarding `COc1cc2c(cc1C=O)C(C)(C(F)(F)F)OCC2` (stereo not given), the melting point lay in the range of 82 to 93 °C. The value for `CC(=O)Nc1cccc2c1CN(c1ccc3c(ccn3C)c1)C2=O` was 239 to 243 °C. The value for `CC(C)(C)c1cc(SC(Sc2cc(C(C)(C)C)c(O)c(C(C)(C)C)c2)C2CC=CCC2)cc(C(C)(C)C)c1O` (stereo not given) was 122 to 125 °C; that for `CC(C(N)=O)c1ccc(-c2ccc(F)cc2F)c(O)c1` (stereo not given) was 222 to 224 °C. The value for `NC(CCCl)C(=O)c1ccccc1` (stereo not given) was 44 to 46 °C; that for `CCCCS(=O)(=O)C1CC(=O)N1CC(=O)CCc1ccccc1` (stereo not given) was 93 to 94 °C; that for `COc1ccc(C(F)(F)F)cc1-c1cccn2nc(Nc3ccc4c(c3)CCN(C(=O)OC(C)(C)C)C4)nc12` was 86 to 90 °C. Consider `CC(=O)c1ccc(C2CCN(C(C)=O)CC2)c(N)c1`, for which the melting point is 220 to 222 °C. The value for `COc1ccc(C(=O)c2ccc3cc(C(=O)c4ccc(OC)cc4)ccc3c2)cc1` was 251 °C; that for `CCC(C)(C)c1ccc(OCCCNC(=O)c2cc([N+](=O)[O-])c3ccccc3c2O)c(C(C)(C)CC)c1` was 209 to 210 °C. The value for `Cc1ccn(-c2ncc(C(=O)N3Cc4cccn4Cc4ccccc43)c(C(F)(F)F)n2)n1` was 202 to 204 °C; that for `O=c1[nH]c(=O)n(C2CC(F)C(CO)O2)cc1Cl` (stereo not given) was 183 to 184 °C. The value for `COc1cc2cc(C(=O)O)oc(=O)c2cc1OC` was 295 to 297 °C; that for `COC(=O)c1nc2nn(-c3ccccc3)c(C)c2c(N)c1C(=O)OC` was 190 to 191 °C; that for `O=C(O)CCSCCCCCCCCCCCCF` was 59 °C.

With `C=CCOc1ccccc1-c1ncc(C#N)c(=O)[nH]1`, the melting point fell in the range of 162 to 164 °C. `O=C1Nc2ccc(Cl)cc2SC1c1ccc(Cl)cc1` (stereo not given) registered a melting point of 230 to 234 °C.
